Laboratory results published in patent publication US20240100063A1, “COMBINATION THERAPY OF PD-1 AXIS BINDING ANTAGONISTS AND LRRK2 INHITIBORS” (Hoffmann-La Roche Inc., priority 2020, published 2024).
“Also recorded” adds a separate entry of the source.

Columns and labels:
[1] = test system: MC38 RFP-OVA cancer cells
Description: (§1) A, E) Schematic representation of the killing assay experimental setup respectively in mouse and human setting. […] Data are normalized to DMSO treated dendritic cells co-cultured with CD8a T cells. F) Evaluation of MV3 cancer cells viability upon co-cultured with MART-1 T Cells primed by human cord blood derived dendritic cells pre-treated with the LRRK2 inhibitor LRRK2-IN-1. Data are normalized to MV3 cells co-cultured with T cells primed in the absence of MART1 peptide. All the experiments were performed in triplicates.
(§2) Subsequently, we investigate whether the pre-treatment of freshly isolated mouse splenic dendritic cells with increasing concentrations of the compounds can enhance the OT-1 CD8a T cells activation upon co-culture. […] Finally, as for the genetic validation in DC2.4, we challenge the splenic derived dendritic cells treated with the different compounds in a killing assay were we measured the MC38 RFP-OVA cancer cell viability upon 6 days of co-culture with OT-1 CD8a T cells primed by mouse splenic dendritic cells pre-treated with the two LRRK2 inhibitors (FIG. 5-A).

MC-38 tumor cells [2] = experiment: in vivo tumor growth, immuno-deficient NSG mice engrafted with MC-38 tumor cells; set-up: species or system mouse
Procedure: (§3) The experiment was carried out with 6-8 weeks female NSG mice from Jackson Laboratory. All procedures described in this study have been reviewed and approved by the local ethic committee (CELEAG) and validated by the French Ministry of Research. Mice was hosted in TCS BSL-2 facility by groups of 5 individuals. Mice were allowed to acclimate to the environment for 5 days prior to the beginning of the experiment. During the efficacy study, mice were monitored daily for unexpected signs of distress. Body weight was monitored 3 times a week. Mice with a cumulative clinical score or with a body weight loss >25% were sacrificed.
Mice were injected subcutaneously with 0.5×10^6 MC-38 tumor cells in 50% Matrigel. Tumor cell engraftment was defined as day zero. At day 9, mice were randomized into 2 groups of 12 mice each, according to the tumor volume. Treatments were initiated at day 10, when the average tumor volume reached ˜150 mm3 as follows: • Group 1: vehicle, dose 200 μL twice per day per os • Group 2: GNE-7915: dose 300 mg/kg per os administration twice per day.
GNE-7915 (cat. num. HY-18163 from MedChemExpress). LRRK2 inhibitor was administered as free base suspensions in vehicle [1% (w/v) Avicel RC-591 and 0.2% (v/v) polysorbate 80 (Tween 80) in reverse osmosis water].
(§4) The aim of this study was to address the in vivo effect on tumor progression of LRRK2 kinase inhibition by using the LRRK2 inhibitor GNE-7915, in immuno-deficient mice engrafted with MC-38 tumor cells. NSG mice were injected subcutaneously with 0.5×10^6 MC-38 tumor cells. Tumor cell engraftment was defined as day zero. At day 9, mice were randomized into 2 groups.
Mice were injected subcutaneously with 0.5×10^6 MC-38 tumor cells in 50% Matrigel. Tumor cell engraftment was defined as day zero. At day 9, mice were randomized into 2 groups of 12 mice each, according to the tumor volume.
PFE-360 (cat. num. HY-120085 from MedChemExpress). […] LRRK2 inhibitors were administered as free base suspensions in vehicle [1% (w/v) Avicel RC-591 and 0.2% (v/v) polysorbate 80 (Tween 80) in reverse osmosis water]. […]

MC-38 tumor cells [3] = experiment: in vivo tumor growth, immunocompetent C57BL/6 mice engrafted with MC-38 tumor cells; details: anti-PD-L1 10 mg/kg i.v. once then 5 mg/kg i.p. twice per week; for MC-38 tumor growth in comparison with vehicle treated mice: PFE-360 7.5 mg/kg, Mli-2 10 mg/kg per os twice per day, day zero to day 28
Procedure: as §3, with “C57BL/6” for “NSG”, “Janvier Labs.” for “Jackson Laboratory.”
Mice were injected subcutaneously with 0.5×10^6 MC-38 tumor cells in 50% Matrigel. Tumor cell engraftment was defined as day zero. At day 8, mice were randomized into 4 groups of 10 mice each, according to the tumor volume. Treatments were initiated at day 9, when the average tumor volume reached ˜150 mm3 as follows: • Group 1: vehicle, dose 200 μL twice per day per os, twice per week intraperitoneal and intravenously once at day 8 • Group 2: 7915: dose 300 mg/kg per os administration twice per day. • Group 3: anti PD-L1 (clone 6E11, atezolizumab mouse surrogate): dose 10 mg/kg intravenous injection once at day 8 and dose 5 mg/kg intraperitoneal injection twice per week. • Group 4: 7915+anti-PD-L1 (clone 6E11, atezolizumab mouse surrogate): dose 300 mg/kg per os injection twice per day. Anti PD-L1: dose 10 mg/kg intravenous injection once at day 8 and dose 5 mg/kg intraperitoneal injection twice per week.
7915 (cat. num. HY-18163 from MedChemExpress). LRRK2 inhibitor was administered as free base suspensions in vehicle [1% (w/v) Avicel RC-591 and 0.2% (v/v) polysorbate 80 (Tween 80) in reverse osmosis water].
as §4, with “7915, alone or” for “GNE-7915,”, “combination with anti-PD-L1, in immunocompetent” for “immuno-deficient”, “C57BL/6” for “NSG”, “At day 9, mice were randomized into 2 groups.” left out

OT-1 CD8a T cells = experiment: OT-1 CD8a T cell proliferation upon co-culture with dendritic cells pre-treated with LRRK2 inhibitors; type: cell-based, mouse
Procedure: (§5) Cells were stained with anti-mouse H-2Kb/[…] antibody. […] F) FACS evaluation of human MART-1 T cell proliferation, upon co-culture with human cord blood derived dendritic cells pre-treated with the LRRK2 inhibitor LRRK2-IN-1. All the experiments were performed in triplicates.
as §2

403 non-mutated kinases = experiment: KINOMEScan in vitro kinase selectivity assay; type: binding, human; details: for number of different kinases whose binding is inhibited by 90% or more: at 0.1 μM, 403 non-mutated kinases; for number of unrelated kinases inhibited to >90%: at lowest concentration to inhibit >90 LRRK2 (0.1 uM)
Procedure: FIG. 10: In vitro kinase selectivity test. […] As a reference, the pan-kinase inhibitor sunitinib was tested.
As a reference, the pan-kinase inhibitor sunitinib was tested.
Kinases other than LRRK2 are herein referred to as unrelated kinases. A selectivity score S can be determined to quantify selectivity, as shown in Example 8. In one embodiment, the selectivity score S(65) of the inhibitor (e.g. the LRRK2 inhibitor) is defined as the ratio of number of kinases inhibited by 65% of binding to their ligand as compared to binding to their ligand without the inhibitor divided by the number of kinases tested. In one embodiment, the selectivity score S(90) of the inhibitor (e.g. the LRRK2 inhibitor) is defined as the ratio of number of kinases inhibited by 90% of binding to their ligand as compared to binding to their ligand without the inhibitor divided by the number of kinases tested. In one embodiment, the selectivity score S(99) of the inhibitor (e.g. the LRRK2 inhibitor) is defined as the ratio of number of kinases inhibited by 99% of binding to their ligand as compared to binding to their ligand without the inhibitor divided by the number of kinases tested. In one embodiment, the selectivity score S is determined for a specified concentration (e.g., 0.1 μM, 1 μM, or 10 μM) of the inhibitor (e.g. the LRRK2 inhibitor). Kinase—ligand binding (and inhibition thereof) can be measured using assays as known in the art and hereinbefore described and as described in Example 8.
(§6) The in vitro kinase selectivity for the tested compounds were determined by running a KINOMEScan® (DiscoverX, CA, USA). […] Selectivity scores S(65), S(90) and S (99) in FIG. 11 are calculated as the ratio of number of non-mutated kinases inhibited by 65%, 90 or 99% divided by the total number of non-mutated kinases tested.

LRRK2 = LRRK2 (Homo sapiens, UniProt Q5S007); experiment: KINOMEScan in vitro kinase selectivity assay, LRRK2; type: binding
LRRK2, sequence (Q5S007 whole entry): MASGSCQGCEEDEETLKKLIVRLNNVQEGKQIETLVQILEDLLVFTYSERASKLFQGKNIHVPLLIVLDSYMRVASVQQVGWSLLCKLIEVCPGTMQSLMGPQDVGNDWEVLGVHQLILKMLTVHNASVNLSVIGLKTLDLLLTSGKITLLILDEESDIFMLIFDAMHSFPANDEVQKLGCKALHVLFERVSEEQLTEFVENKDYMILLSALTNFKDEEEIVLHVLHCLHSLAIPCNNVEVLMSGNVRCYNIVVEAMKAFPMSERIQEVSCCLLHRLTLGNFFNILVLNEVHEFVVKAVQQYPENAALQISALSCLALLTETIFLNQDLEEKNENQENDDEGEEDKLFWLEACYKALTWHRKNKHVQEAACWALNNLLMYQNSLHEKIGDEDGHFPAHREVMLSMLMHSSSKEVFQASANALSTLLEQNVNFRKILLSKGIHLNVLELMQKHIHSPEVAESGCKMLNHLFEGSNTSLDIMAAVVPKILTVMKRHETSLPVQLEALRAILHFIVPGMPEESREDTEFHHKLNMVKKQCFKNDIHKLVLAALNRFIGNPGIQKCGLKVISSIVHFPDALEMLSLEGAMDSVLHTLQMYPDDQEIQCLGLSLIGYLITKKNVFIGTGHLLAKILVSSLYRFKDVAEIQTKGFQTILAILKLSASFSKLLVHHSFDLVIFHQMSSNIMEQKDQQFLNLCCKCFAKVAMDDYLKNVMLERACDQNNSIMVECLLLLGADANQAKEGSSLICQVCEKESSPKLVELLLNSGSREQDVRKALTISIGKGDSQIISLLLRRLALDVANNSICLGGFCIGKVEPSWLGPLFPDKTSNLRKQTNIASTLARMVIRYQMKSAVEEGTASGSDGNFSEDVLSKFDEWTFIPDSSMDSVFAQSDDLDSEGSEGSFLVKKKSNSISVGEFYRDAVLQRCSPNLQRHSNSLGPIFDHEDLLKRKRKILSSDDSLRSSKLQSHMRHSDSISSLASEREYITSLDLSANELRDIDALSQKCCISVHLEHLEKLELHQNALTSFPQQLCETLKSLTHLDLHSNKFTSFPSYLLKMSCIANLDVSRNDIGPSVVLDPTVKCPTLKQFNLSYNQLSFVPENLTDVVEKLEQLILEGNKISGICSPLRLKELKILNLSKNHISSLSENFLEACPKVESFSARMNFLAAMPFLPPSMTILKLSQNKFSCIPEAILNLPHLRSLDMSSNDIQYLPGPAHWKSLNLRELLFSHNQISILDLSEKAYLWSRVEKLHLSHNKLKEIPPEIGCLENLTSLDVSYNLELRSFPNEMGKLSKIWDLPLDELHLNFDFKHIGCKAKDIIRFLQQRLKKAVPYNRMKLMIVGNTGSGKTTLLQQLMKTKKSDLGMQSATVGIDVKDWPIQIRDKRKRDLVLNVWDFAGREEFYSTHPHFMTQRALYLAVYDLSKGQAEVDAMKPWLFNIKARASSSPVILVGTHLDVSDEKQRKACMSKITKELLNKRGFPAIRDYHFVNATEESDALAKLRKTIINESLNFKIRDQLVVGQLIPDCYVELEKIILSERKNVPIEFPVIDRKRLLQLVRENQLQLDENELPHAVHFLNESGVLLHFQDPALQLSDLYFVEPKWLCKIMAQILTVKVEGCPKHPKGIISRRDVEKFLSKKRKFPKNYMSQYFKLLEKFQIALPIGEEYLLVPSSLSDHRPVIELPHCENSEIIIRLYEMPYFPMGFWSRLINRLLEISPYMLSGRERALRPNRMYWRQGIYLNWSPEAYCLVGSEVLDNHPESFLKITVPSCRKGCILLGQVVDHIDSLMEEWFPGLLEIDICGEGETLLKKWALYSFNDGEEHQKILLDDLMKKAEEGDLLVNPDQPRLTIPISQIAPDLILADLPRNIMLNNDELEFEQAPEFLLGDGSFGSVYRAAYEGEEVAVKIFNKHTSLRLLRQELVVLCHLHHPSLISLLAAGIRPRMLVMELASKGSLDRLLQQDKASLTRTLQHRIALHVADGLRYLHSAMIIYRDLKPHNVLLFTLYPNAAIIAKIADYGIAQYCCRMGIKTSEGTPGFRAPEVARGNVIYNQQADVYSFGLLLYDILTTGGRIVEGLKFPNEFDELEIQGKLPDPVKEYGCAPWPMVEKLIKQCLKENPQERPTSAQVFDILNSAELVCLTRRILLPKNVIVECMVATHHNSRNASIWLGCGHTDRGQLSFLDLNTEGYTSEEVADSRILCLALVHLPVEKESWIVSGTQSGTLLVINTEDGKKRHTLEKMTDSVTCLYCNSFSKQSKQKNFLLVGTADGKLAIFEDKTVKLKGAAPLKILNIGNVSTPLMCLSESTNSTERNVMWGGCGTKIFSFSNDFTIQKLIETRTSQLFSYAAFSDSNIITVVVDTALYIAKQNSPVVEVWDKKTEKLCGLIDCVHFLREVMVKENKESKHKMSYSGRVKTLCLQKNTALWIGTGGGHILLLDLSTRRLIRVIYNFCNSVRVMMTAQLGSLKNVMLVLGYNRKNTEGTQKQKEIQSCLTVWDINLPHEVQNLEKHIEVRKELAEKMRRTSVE
Procedure: as §6

MV3 cancer cells = experiment: killing assay: MV3 viability upon co-culture with MART-1 T cells primed by pre-treated human cord blood derived dendritic cells; type: cell-based; details: 6 days killing assay, increasing concentration, human setting
Description: as §1, §2

DC2.4 SCR cells = experiment: antigen cross-presentation assay on DC2.4 cells (FACS, anti-mouse H-2Kb/[…] antibody); type: cell-based; details: overnight administration
Procedure: as §5, §2

MART-1 T Cells = experiment: MART-1 T cell proliferation upon co-culture with pre-treated human cord blood derived dendritic cells; type: cell-based; details: human MART-1 T cells primed by human cord blood derived dendritic cells, FIG. 4-F
Procedure: as §5, §2

[4] = PFE-360 7.5 mg/kg, Mli-2 10 mg/kg per os twice per day, day zero to day 24

Row | SMILES | T cell mediated cytotoxicity (MC38 RFP-OVA cancer cell viability) [1] | number of different kinases whose binding is inhibited by 90% or more (403 non-mutated kinases) | number of unrelated kinases inhibited to >90% (403 non-mutated kinases) | MC-38 tumor growth in comparison with vehicle treated mice (MC-38 tumor cells [2]; [4]) | inhibition at 0.1 µM (LRRK2) [%] | MC-38 tumor growth in comparison with vehicle treated mice (MC-38 tumor cells [3]) | further results
1 | CCNc1nc(Nc2cc(F)c(C(=O)N3CCOCC3)cc2OC)ncc1C(F)(F)F [compound 7915, [4-[[4-(ethylamino)-5-(trifluoromethyl)pyrimidin-2-yl]amino]-2-fluoro-5-methoxy-phenyl]-morpholino-methanone] | increased T cell mediated cytotoxicity | – | – | – | – | – | MC-38 tumor growth in comparison with vehicle treated mice (MC-38 tumor cells [2]; GNE-7915 300 mg/kg per os twice per day, day zero to day 21, 300 mg/kg): not modifying tumor growth; also recorded: not impacting MC-38 tumor growth; tumor growth inhibition (MC-38 tumor cells [3]; MC-38, vs vehicle, 7915 300 mg/kg per os twice per day, day zero to day 15): 82%; cross-presentation mediated T cell proliferation (OT-1 CD8a T cells; murine OT1 CD8a T cells, FIG. 4-H): already at lowest concentration a stable increase
2 | Cn1cc(-c2c[nH]c3ncnc(N4CCOCC4)c23)cc1C#N [PFE-360, 1-methyl-4-(4-morpholino-7H-pyrrolo[2,3-d]pyrimidin-5-yl)pyrrole-2-carbonitrile] | – | 9 | 9 | not modifying tumor growth; also recorded: not impacting MC-38 tumor growth | 100 | inducing tumor growth inhibition; also recorded: significantly decrease MC-38 tumor growth | fold more selective than sunitinib (403 non-mutated kinases; at all concentration on average): ~2 fold
3 | CCN(CC)CCNC(=O)c1c(C)[nH]c(/C=C2\C(=O)Nc3ccc(F)cc32)c1C [sunitinib] | – | – | – | – | < 50 | – | –
4 | COc1cc(C(=O)N2CCC(N3CCN(C)CC3)CC2)ccc1Nc1ncc2c(n1)N(C)c1ccccc1C(=O)N2C [LRRK2-IN-1, 2-[2-methoxy-4-[4-(4-methylpiperazin-1-yl)piperidine-1-carbonyl]anilino]-5,11-dimethyl-pyrimido[4,5-b][1,4]benzodiazepin-6-one] | – | – | – | – | – | – | MV3 cancer cell viability (MV3 cancer cells): dose dependent reduction of MV3 cancer cell viability; concentration showing an effect on antigen cross-presentation (DC2.4 SCR cells): 1 µM; cross-presentation mediated T cell proliferation (MART-1 T Cells): already at lowest concentration a stable increase; also recorded: increased the T cells proliferation
5 | C[C@@H]1CN(c2cc(-c3n[nH]c4ccc(OC5(C)CC5)cc34)ncn2)C[C@H](C)O1 [MLi-2, cis-2,6-dimethyl-4-[6-[5-(1-methylcyclopropoxy)-1H-indazol-3-yl]pyrimidin-4-yl]morpholine] | increased T cell mediated cytotoxicity | three | 3 | not modifying tumor growth; also recorded: not impacting MC-38 tumor growth | – | inducing tumor growth inhibition; also recorded: significantly decrease MC-38 tumor growth | –
6 | CNc1nc(Nc2cnn(C3CCN(C4COC4)CC3F)c2Cl)ncc1C(F)(F)F (stereo not drawn) [compound 9605, N2-[5-chloro-1-[3-fluoro-1-(oxetan-3-yl)-4-piperidyl]pyrazol-4-yl]-N4-methyl-5-(trifluoromethyl)pyrimidine-2,4-diamine] | increased T cell mediated cytotoxicity | – | – | – | – | – | concentration at which increased T cell proliferation is shown (OT-1 CD8a T cells; OT-1 CD8a T cells co-cultured with pre-treated mouse splenic dendritic cells): ≥ 100 nM
